Results on one compound are retold here after ChEMBL document CHEMBL1141400, “Influence of conformation and intramolecular hydrogen bonding on the acyl glucuronidation and biliary excretion of acetylenic bis-dipyrrinones related to bilirubin” (J Med Chem, 2007).

This series has as its system Rattus norvegicus. In words: Hepatobiliary metabolism in UGT1A1-deficient Gunn rat measured as biliary excretion at 0.25 mg, iv within 240 mins. In kind it is ADME, organism-based, Bile. The conditions noted are these: in vivo, 4 h.

The compound `CCC1=C(C)C(=O)N/C1=C\c1[nH]c(C#Cc2[nH]c(/C=C3/NC(=O)C(C)=C3CC)c(C)c2CCC(=O)O)c(CCC(=O)O)c1C` registered an Activity of 93%.
